# Literature values in US7105170B2, “Latent human tuberculosis model, diagnostic antigens, and methods of use” (The United States of America as represented by the …, priority 2001, dated 2006).
# System: M. tuberculosis bacilli
# Details: non-replicating persistent lower oxygen state (NRP2)
row,SMILES,alterations in drug susceptibility
1,O=C(O)c1cn(C2CC2)c2cc(N3CCNCC3)c(F)cc2c1=O [ciprofloxicin],resistant
2,Cc1ncc([N+](=O)[O-])n1CCO [metronidazole],sensitive
